Entries after “also recorded” stand apart in the source; their conditions may differ.
System: DC 2.4 cells
Assay: Transfection of eGFP-mRNA in DC 2.4 cells (FCM and LSCM)
Assay type: cell-based, mouse
Conditions: mRNA 0.2 μg/well, material 0.25 to 2 μg/well (dosages per FIG. 7), 24 h, FIG. 7-9
Experimental: In this experiment, with eGFP-mRNA as model mRNA, an mRNA transfection efficiency of a cationic lipid analog material in DC 2.4 cells was detected. A specific operation method was as follows:
DC 2.4 cells were inoculated in a 48-well plate and cultured in an incubator for 12 h; each of different cationic lipid analog materials (0.25 μg/well to 2 μg/well) was mixed with cGFP-expressing mRNA (0.2 μg/well) in 20 μL of a sodium acetate buffer (25 mM, pH 5.2), and resulting mixtures each were allowed to stand for 10 min and then diluted with 230 μL of a Opti-MEM medium to obtain mRNA-loaded complex particle solutions; a medium for the […] were washed once with PBS, and the complex particle solutions were added; and the cells were cultured for 24 h, an mRNA transfection efficiency in cells was observed by FCM and LSCM. A commercial gene transfection reagent Lipofectamine 2000 was adopted as a positive control.

| SMILES | mRNA transfection efficiency (eGFP-mRNA), compared with Lipofectamine 2000 |
| --- | --- |
| CCCCCCCCCCCCCC(=O)N(CCCN(C)C)C(C(=O)NCCCCCCNC(=O)C(C(C)C)N(CCCN(C)C)C(=O)CCCCCCCCCCCCC)C(C)C (centres unmarked) [I1R2C14A1] | high transfection efficiency |
| CCCCCCCCCCCCCC(=O)N(CCC1CCCN1C)C(C(=O)NCCCCCCNC(=O)C(C(C)C)N(CCC1CCCN1C)C(=O)CCCCCCCCCCCCC)C(C)C (centres unmarked) [I1R11C14A1] | high transfection efficiency; also recorded: equivalent to or higher than |
| CCCCCCCCCCCCCC(=O)N(CCN(C)C)C(C(=O)NCCOCCOCCNC(=O)C(C(C)C)N(CCN(C)C)C(=O)CCCCCCCCCCCCC)C(C)C (centres unmarked) [I2R1C14A1] | high transfection efficiency; also recorded: equivalent to or higher than |
| CCCCCCCCCCCCCCCC(=O)N(CCN(C)C)C(C(=O)NCCOCCOCCNC(=O)C(C(C)C)N(CCN(C)C)C(=O)CCCCCCCCCCCCCCC)C(C)C (centres unmarked) [I2R1C16A1] | high transfection efficiency; also recorded: equivalent to or higher than |
| CCCCCCCC/C=C\CCCCCCCC(=O)N(CCN(C)C)C(C(=O)NCCOCCOCCNC(=O)C(C(C)C)N(CCN(C)C)C(=O)CCCCCCC/C=C\CCCCCCCC)C(C)C (centres unmarked) [I2R1C18-1A1] | high transfection efficiency; also recorded: equivalent to or higher than |
| CCCCCCCC/C=C\CCCCCCCC(=O)N(CCCN(C)C)C(C(=O)NCCOCCOCCNC(=O)C(C(C)C)N(CCCN(C)C)C(=O)CCCCCCC/C=C\CCCCCCCC)C(C)C (centres unmarked) [I2R2C18-1A1] | high transfection efficiency; also recorded: equivalent to or higher than |

Same assay, conditions: mRNA 0.2 μg/well, material 0.25 to 2 μg/well (dosages per FIG. 7), 24 h, FIG. 7-9, listed as 11R2C14A1

| SMILES | mRNA transfection efficiency (eGFP-mRNA), compared with Lipofectamine 2000 |
| --- | --- |
| CCCCCCCCCCCCCC(=O)N(CCCN(C)C)C(C(=O)NCCCCCCNC(=O)C(C(C)C)N(CCCN(C)C)C(=O)CCCCCCCCCCCCC)C(C)C (centres unmarked) [I1R2C14A1] | equivalent to or higher than |

System: A549 cells (A549-Luc)
Assay: siRNA transfection, luciferase gene silencing in A549-Luc cells
Assay type: cell-based, human
Conditions: final siRNA 100 nM, material 0.5 to 3 μg/well, 48 h, FIG. 10
Experimental: In this experiment, with I2R2C18-1A1, I2R3C18-1A1, I2R2C18-2A1, and I2R3C18-2A1 as representative cationic lipid analog materials, siRNA transfection and delivery effects of the cationic lipid analog materials were detected in A549 cells (A549-Luc). A specific operation method was as follows:
Luciferase-expressing A549 cells (A549-Luc) were inoculated in a 96-well plate and cultured in an incubator for 12 h; each of different materials (0.5 μg/well to 3 μg/well) was mixed with siRNA in 40 μL of a sodium acetate buffer (25 mM, pH 5.2), and resulting mixtures each were allowed to stand for 10 min and then diluted with 460 μL of an Opti-MEM medium to obtain siRNA-loaded complex particle solutions (final siRNA concentration was 100 nM); a medium for the A549-Luc cells in the plate was removed, then the A549-Luc cells were washed once with PBS, and the complex particle solutions each were added in a volume of 125 μL; the cells were cultured for 48 h, then a resulting culture supernatant was discarded, and the cells were fully lysed; and a substrate was added at 50 μl/well, and an expression level of luciferase was detected by a multi-mode microplate reader.

| SMILES | gene silencing efficiency as a function of material dosage | siRNA transfection, silencing of the luciferase reporter gene |
| --- | --- | --- |
| CCCCCCCC/C=C\CCCCCCCC(=O)N(CCCN(C)C)C(C(=O)NCCOCCOCCNC(=O)C(C(C)C)N(CCCN(C)C)C(=O)CCCCCCC/C=C\CCCCCCCC)C(C)C (centres unmarked) [I2R2C18-1A1] | increases with the increase of a dosage | efficient gene silencing; also recorded: can transfect siRNA into cells to specifically silence the expression of the luciferase reporter gene |

System: Hela cells
Assay: Transfection of luciferase-expressing plasmid DNA in HeLa cells (luciferase expression)
Assay type: cell-based, human
Conditions: plasmid DNA 0.5 μg, 24 h, luciferase expression level, FIG. 5
Experimental: In this example, with luciferase-expressing plasmid DNA as a reporter gene, a gene transfection efficiency of a cationic lipid analog material in HeLa cells was detected. A specific operation method was as follows: Hela cells were inoculated in a 96-well plate and cultured in an incubator for 12 h; each of different cationic lipid analog materials was mixed with luciferase-expressing plasmid DNA (0.5 μg) in 40 μL of a sodium acetate buffer (25 mM, pH 5.2), and resulting mixtures each were allowed to stand for 10 min and then diluted with 460 μL of an Opti-MEM medium to obtain plasmid DNA-loaded cationic lipid analog complex particle solutions; a medium for the Hela cells in the plate was removed, then the Hela cells were washed once with PBS, and the complex particle solutions were added in a volume of 125 μL; the cells were cultured for 24 h, then a resulting culture supernatant was discarded, and the cells were fully lysed; and a substrate was added at 50 μl/well, and an expression level of luciferase was detected by a multi-mode microplate reader.

| SMILES | transfection efficiency of luciferase-expressing plasmid DNA, compared with Lipofectamine 2000 |
| --- | --- |
| CCCCCCCCCCCCCC(=O)N(CCCN(C)C)C(C(=O)NCCCCCCNC(=O)C(C(C)C)N(CCCN(C)C)C(=O)CCCCCCCCCCCCC)C(C)C (centres unmarked) [I1R2C14A1] | equivalent to or higher than |
| CCCCCCCCCCCCCC(=O)N(CCC1CCCN1C)C(C(=O)NCCCCCCNC(=O)C(C(C)C)N(CCC1CCCN1C)C(=O)CCCCCCCCCCCCC)C(C)C (centres unmarked) [I1R11C14A1] | equivalent to or higher than |
| CCCCCCCCCCCCCC(=O)N(CCN(C)C)C(C(=O)NCCOCCOCCNC(=O)C(C(C)C)N(CCN(C)C)C(=O)CCCCCCCCCCCCC)C(C)C (centres unmarked) [I2R1C14A1] | equivalent to or higher than |
| CCCCCCCCCCCCCCCC(=O)N(CCN(C)C)C(C(=O)NCCOCCOCCNC(=O)C(C(C)C)N(CCN(C)C)C(=O)CCCCCCCCCCCCCCC)C(C)C (centres unmarked) [I2R1C16A1] | equivalent to or higher than |
| CCCCCCCC/C=C\CCCCCCCC(=O)N(CCN(C)C)C(C(=O)NCCOCCOCCNC(=O)C(C(C)C)N(CCN(C)C)C(=O)CCCCCCC/C=C\CCCCCCCC)C(C)C (centres unmarked) [I2R1C18-1A1] | equivalent to or higher than |
| CCCCCCCC/C=C\CCCCCCCC(=O)N(CCCN(C)C)C(C(=O)NCCOCCOCCNC(=O)C(C(C)C)N(CCCN(C)C)C(=O)CCCCCCC/C=C\CCCCCCCC)C(C)C (centres unmarked) [I2R2C18-1A1] | equivalent to or higher than |

System: Hela cells
Assay: Transfection of GFP-expressing plasmid DNA in Hela cells (flow cytometer)
Assay type: cell-based, human
Conditions: plasmid DNA 0.5 μg/well, material 0.25 to 8 μg/well (dosages per FIG. 4), 24 h
Experimental: In this experiment, with GFP-expressing plasmid DNA as a reporter gene, a gene transfection efficiency of a cationic lipid analog material in Hela cells was detected. A specific method was as follows:
Hela cells were inoculated in a 24-well plate and cultured in an incubator for 12 h; each of different cationic lipid analog materials (0.25 μg/well to 8 μg/well) was mixed with GFP-expressing plasmid DNA (0.5 μg/well) in 40 μL of a sodium acetate buffer (25 mM, pH 5.2), and resulting mixtures each were allowed to stand for 10 min and then diluted with 460 μL of an Opti-MEM medium to obtain plasmid DNA-loaded cationic lipid analog complex particle solutions; a medium for the Hela cells in the plate was removed, then the HeLa cells were washed once with PBS, and the complex particle solutions were added; and the cells were cultured for 24 h, and then a plasmid DNA transfection efficiency in cells was analyzed by a flow cytometer. A commercial gene transfection reagent Lipofectamine 2000 was adopted as a positive control.

| SMILES | transfection efficiency of GFP-expressing plasmid DNA, compared with commercial transfection reagent Lipofectamine 2000 |
| --- | --- |
| CCCCCCCCCCCCCC(=O)N(CCCN(C)C)C(C(=O)NCCCCCCNC(=O)C(C(C)C)N(CCCN(C)C)C(=O)CCCCCCCCCCCCC)C(C)C (centres unmarked) [I1R2C14A1] | reaches or is higher than |
| CCCCCCCCCCCCCC(=O)N(CCC1CCCN1C)C(C(=O)NCCCCCCNC(=O)C(C(C)C)N(CCC1CCCN1C)C(=O)CCCCCCCCCCCCC)C(C)C (centres unmarked) [I1R11C14A1] | reaches or is higher than |
| CCCCCCCCCCCCCC(=O)N(CCN(C)C)C(C(=O)NCCOCCOCCNC(=O)C(C(C)C)N(CCN(C)C)C(=O)CCCCCCCCCCCCC)C(C)C (centres unmarked) [I2R1C14A1] | reaches or is higher than; also recorded: equivalent to or higher than |
| CCCCCCCCCCCCCCCC(=O)N(CCN(C)C)C(C(=O)NCCOCCOCCNC(=O)C(C(C)C)N(CCN(C)C)C(=O)CCCCCCCCCCCCCCC)C(C)C (centres unmarked) [I2R1C16A1] | reaches or is higher than; also recorded: equivalent to or higher than |
| CCCCCCCC/C=C\CCCCCCCC(=O)N(CCN(C)C)C(C(=O)NCCOCCOCCNC(=O)C(C(C)C)N(CCN(C)C)C(=O)CCCCCCC/C=C\CCCCCCCC)C(C)C (centres unmarked) [I2R1C18-1A1] | reaches or is higher than; also recorded: equivalent to or higher than |
| CCCCCCCC/C=C\CCCCCCCC(=O)N(CCCN(C)C)C(C(=O)NCCOCCOCCNC(=O)C(C(C)C)N(CCCN(C)C)C(=O)CCCCCCC/C=C\CCCCCCCC)C(C)C (centres unmarked) [I2R2C18-1A1] | reaches or is higher than; also recorded: equivalent to or higher than |

Same assay, conditions: plasmid DNA 0.5 μg/well, material 0.25 to 8 μg/well (dosages per FIG. 4), 24 h, listed as 11R2C14A1

| SMILES | transfection efficiency of GFP-expressing plasmid DNA, compared with commercial transfection reagent Lipofectamine 2000 |
| --- | --- |
| CCCCCCCCCCCCCC(=O)N(CCCN(C)C)C(C(=O)NCCCCCCNC(=O)C(C(C)C)N(CCCN(C)C)C(=O)CCCCCCCCCCCCC)C(C)C (centres unmarked) [I1R2C14A1] | equivalent to or higher than |

Same assay, conditions: plasmid DNA 0.5 μg/well, material 0.25 to 8 μg/well (dosages per FIG. 4), 24 h, listed as 11R11C14A1

| SMILES | transfection efficiency of GFP-expressing plasmid DNA, compared with commercial transfection reagent Lipofectamine 2000 |
| --- | --- |
| CCCCCCCCCCCCCC(=O)N(CCC1CCCN1C)C(C(=O)NCCCCCCNC(=O)C(C(C)C)N(CCC1CCCN1C)C(=O)CCCCCCCCCCCCC)C(C)C (centres unmarked) [I1R11C14A1] | equivalent to or higher than |
